Experimental data: PubChem BioAssay AID1033 (Sanford-Burnham Center for Chemical Genomics, 2008)
Calls of active or inactive are those of the source. How the calls were made is not given here.

Target: Chaperone protein DnaK (Escherichia coli (strain K12)) (UniProt P0A6Y8)
Test: binders of DnaK substrate-binding domain, biophysical, NMR, chaperone (AID 1033)
Details: Purified DnaK SBD, NMR ligand binding

Sequence of Chaperone protein DnaK (Escherichia coli (strain K12)) (P0A6Y8 whole entry, looked up, the tested form may be a part): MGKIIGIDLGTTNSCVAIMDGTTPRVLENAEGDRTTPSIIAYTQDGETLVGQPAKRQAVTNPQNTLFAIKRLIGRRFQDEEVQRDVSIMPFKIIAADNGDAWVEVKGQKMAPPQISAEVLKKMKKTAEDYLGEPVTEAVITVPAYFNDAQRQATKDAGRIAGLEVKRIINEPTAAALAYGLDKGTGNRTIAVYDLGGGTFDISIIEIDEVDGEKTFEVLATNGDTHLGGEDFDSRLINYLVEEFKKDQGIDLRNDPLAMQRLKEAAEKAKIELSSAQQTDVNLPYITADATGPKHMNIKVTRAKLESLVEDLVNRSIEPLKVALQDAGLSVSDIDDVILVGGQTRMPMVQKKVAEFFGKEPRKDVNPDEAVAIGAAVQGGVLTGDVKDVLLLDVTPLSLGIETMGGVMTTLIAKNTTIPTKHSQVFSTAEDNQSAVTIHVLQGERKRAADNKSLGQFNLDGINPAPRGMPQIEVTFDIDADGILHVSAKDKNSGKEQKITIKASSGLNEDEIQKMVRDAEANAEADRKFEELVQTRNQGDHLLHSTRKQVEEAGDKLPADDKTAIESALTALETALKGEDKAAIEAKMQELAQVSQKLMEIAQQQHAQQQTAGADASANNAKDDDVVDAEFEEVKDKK

Row | SMILES | Kd
1 | CC(CC(O)C1OC1(C)C)[C@@H]1CCC2(C)C3=CCC4C(C)(C)C(=O)CCC4(C)C3CC[C@@]12C (stereo partly specified) | > 4 mM (inactive)
2 | CCOc1cc(S(=O)(=O)N2CCOCC2)ccc1F | > 4 mM (inactive)
3 | CS(=O)(=O)c1ccccc1C(=O)Nc1nccs1 | > 4 mM (inactive)
4 | Brc1ccc(-c2nc(-c3ccncc3)no2)o1 | > 4 mM (inactive)
5 | Cc1nn(C)c(Cl)c1S(=O)(=O)N1CCOCC1 | > 4 mM (inactive)
6 | O=c1cc(-c2ccccc2)oc2c(O)c(O)ccc12 | > 4 mM (inactive)
7 | Cc1nc(NC2=NCCC(=O)N2)nc2ccccc12 | > 4 mM (inactive)
8 | CN1C(=O)/C(=C\c2ccc[nH]2)SC1=S | > 4 mM (inactive)
9 | Cc1cc(OC(=O)c2c(C)cc(O)cc2O)cc(O)c1C(=O)O | > 4 mM (inactive)
10 | NC(=O)CSc1ccc2nnc(-c3cccs3)n2n1 | > 4 mM (inactive)
11 | O=C(N1CCOCC1)N1CCN(c2ccccn2)CC1 | > 4 mM (inactive)
12 | C=CCn1c(N)c(C(=O)N2CCOCC2)sc1=S | > 4 mM (inactive)
13 | CN(C)S(=O)(=O)Nc1ccc(Br)cc1F | > 4 mM (inactive)
14 | Nc1ccccc1-c1nc2ccccc2[nH]1 | > 4 mM (inactive)
15 | O=C(Nc1cnc2ccccn2c1=O)c1ccc(F)cc1 | > 4 mM (inactive)
16 | CC(=O)Nc1cnn(-c2ccccc2)c(=O)c1Cl | > 4 mM (inactive)
17 | Cc1nn2c(=O)c(NC(=O)c3ccccc3)cnc2s1 | > 4 mM (inactive)
18 | CN(C)C(=S)Nc1nc2ccccc2s1 | > 4 mM (inactive)
19 | Cc1nc(-c2ccc(CO)s2)cs1 | > 4 mM (inactive)
20 | O=C(O)c1ccc2occc2c1 | > 4 mM (inactive)
21 | Cc1ccc(C(C)C)cc2c(C)ccc1-2 | > 4 mM (inactive)
22 | O=C(O)c1cccc2c1OCCCO2 | > 4 mM (inactive)
23 | O=C(NCc1ccco1)c1cccc(F)c1 | > 4 mM (inactive)
24 | COc1c(C(=O)N2CCCC2)ccc2ccccc12 | > 4 mM (inactive)

Row | SMILES | Kd
25 | Nc1ccc2c(c1)COc1ccccc1O2 | > 4 mM (inactive)
26 | O=C1CC(c2ccccc2)n2ncnc2N1 (stereo unspecified) | > 4 mM (inactive)
27 | Cc1cc(C)c(C#N)c(N2CCCC2)n1 | > 4 mM (inactive)
28 | COc1ccc(/C=N/n2cn[nH]c2=S)cc1 | > 4 mM (inactive)
29 | CC(=O)C1CC[C@H]2C3CC[C@H]4C[C@H](O)CC[C@]4(C)C3CC[C@]12C (stereo partly specified) | > 4 mM (inactive)
30 | Cc1cc(C(=O)O)n[nH]1 | > 4 mM (inactive)
31 | O=c1[nH]cc(N2CCCCC2)c(=O)[nH]1 | > 4 mM (inactive)
32 | COC(=O)c1cc(C)on1 | > 4 mM (inactive)
33 | NC(=O)c1cc(Cl)c(C(N)=O)cc1Cl | > 4 mM (inactive)
34 | CC1=C(/C=C/C(C)=C/C=C/C(C)=C/CO)C(C)(C)CCC1 | > 4 mM (inactive)
35 | O=c1cc(-c2cc(O)c(O)c(O)c2)oc2cc(O)cc(O)c12 | > 4 mM (inactive)
36 | Nc1cc(=O)[nH]c(=O)n1-c1ccccc1 | > 4 mM (inactive)
37 | NC1=NC(=O)/C(=C/c2cccc([N+](=O)[O-])c2)S1 | > 4 mM (inactive)
38 | O=C1Nc2ccccc2C1(O)Cc1ccncc1 (stereo unspecified) | > 4 mM (inactive)
39 | NC(Cn1ccc(=O)c(O)c1)C(=O)O (stereo unspecified) | > 4 mM (inactive)
40 | Fc1ccc(CN2CCCNCC2)cc1 | > 4 mM (inactive)
41 | O=c1cc(O)nc(SCc2ccccc2)[nH]1 | > 4 mM (inactive)
42 | CC(=O)Oc1cc2c(C(C)=O)coc2c2ccccc12 | > 4 mM (inactive)
43 | O=C(O)CCCNC(=O)c1ccccc1C(=O)O | > 4 mM (inactive)
44 | Cc1ccn(S(=O)(=O)c2ccc(C(C)(C)C)cc2)n1 | > 4 mM (inactive)
45 | COC(=O)CC1C(C)(C)C(OC(C)=O)[C@@H]2[C@@H](OC(C)=O)[C@]34O[C@@]2(O)[C@]1(C)C3CC[C@]1(C)C4=CC(=O)O[C@H]1c1ccoc1 (stereo partly specified) | > 4 mM (inactive)
46 | OC1CCC(C(F)(F)F)CC1 (stereo unspecified) | > 4 mM (inactive)
47 | O=C(O)C1Cc2ccccc2N1 (stereo unspecified) | > 4 mM (inactive)
48 | Cc1noc(C)c1C(=O)NCc1ccco1 | > 4 mM (inactive)

Row | SMILES | Kd
49 | O=C(OC[C@H]1O[C@H](OC(=O)c2cc(O)c(O)c(OC(=O)c3cc(O)c(O)c(O)c3)c2)[C@H](OC(=O)c2cc(O)c(O)c(OC(=O)c3cc(O)c(O)c(O)c3)c2)[C@@H](OC(=O)c2cc(O)c(O)c(OC(=O)c3cc(O)c(O)c(O)c3)c2)[C@@H]1OC(=O)c1cc(O)c(O)c(OC(=O)c2cc(O)c(O)c(O)c2)c1)c1cc(O)c(O)c(OC(=O)c2cc(O)c(O)c(O)c2)c1 | > 4 mM (inactive)
50 | Cc1cc(OC(=O)c2ccco2)c([N+](=O)[O-])c(=O)[nH]1 | > 4 mM (inactive)
51 | COc1ccccc1/C=C\C(=O)O | > 4 mM (inactive)
52 | O=C(O)C1Cc2ccccc2O1 (stereo unspecified) | > 4 mM (inactive)
53 | c1ccc(Cc2nnc(-c3ccccc3)o2)cc1 | > 4 mM (inactive)
54 | Nc1nc2ccc(S(N)(=O)=O)cc2s1 | > 4 mM (inactive)
55 | CC(=O)Nc1ccc(C(=O)NC2=NCCS2)cc1 | > 4 mM (inactive)
56 | COC(=O)c1cc2cc(N)ccc2s1 | > 4 mM (inactive)
57 | CC1=C2C(O)C(=O)OC3CC4C(C)(C)C(=O)C=C[C@]4(C)C(CC1)[C@]23C (stereo partly specified) | > 4 mM (inactive)
58 | CC1CCc2cc(F)ccc2N1C(=O)c1ccc(=O)[nH]n1 (stereo unspecified) | > 4 mM (inactive)
59 | O=C(NCc1cccc(Cl)c1)c1cccnc1 | > 4 mM (inactive)
60 | Cc1nc2ccccc2c2c1C(=O)N(C)C2=O | > 4 mM (inactive)
61 | CCC(=O)NC(=S)Nc1ccc(O)cc1 | > 4 mM (inactive)
62 | O=c1c2ccccc2ncn1C1CCCCC1 | > 4 mM (inactive)
63 | COc1ccc(S(=O)(=O)N2CCC(C(N)=O)CC2)cc1 | > 4 mM (inactive)
64 | CCn1nnc2c(NCc3ccccn3)ncnc21 | > 4 mM (inactive)
65 | O=C(O)Cc1csc(-c2ccccc2)n1 | > 4 mM (inactive)
66 | Cc1cc(C)n(C2CCS(=O)(=O)C2)n1 (stereo unspecified) | > 4 mM (inactive)
67 | O=C1CSC(=O)N1c1cccc(O)c1 | > 4 mM (inactive)
68 | O=CN1CCN(C(=O)c2ccco2)CC1 | > 4 mM (inactive)
69 | COc1cccc(Oc2ccc(N)cc2)c1 | > 4 mM (inactive)
70 | CCNC(CC(=O)Nc1ccc(O)cc1)C(=O)O (stereo unspecified) | > 4 mM (inactive)
71 | O=C(O)Cc1c[nH]c2ccccc12 | > 4 mM (inactive)
72 | COc1ccccc1CNc1nc2nc(C)cc(=O)n2[nH]1 | > 4 mM (inactive)

Row | SMILES | Kd
73 | COc1ccc2c(c1O)-c1c(OC)c(OC)cc3c1[C@H](C2)N(C)CC3 | > 4 mM (inactive)
74 | O=C1NC(=O)C(Cc2ccccc2)C(=O)N1 | > 4 mM (inactive)
75 | O=C(O)C1CCCCN1Cc1ccccc1 (stereo unspecified) | > 4 mM (inactive)
76 | Nc1ccc(S(=O)(=O)Nc2ccc(F)cc2F)cc1 | > 4 mM (inactive)
77 | C=C(C)[C@@H]1[C@H]2OC(=O)[C@@H]1[C@]1(O)C[C@H]3O[C@]34C(=O)O[C@H]2[C@]14C | > 4 mM (inactive)
78 | COc1cccc(NC(=O)c2nc3ncccn3n2)c1 | > 4 mM (inactive)
79 | COc1cccc(S(=O)(=O)Nc2cccnc2)c1 | > 4 mM (inactive)
80 | Cn1cnnc1Sc1ncnc(N)c1[N+](=O)[O-] | > 4 mM (inactive)
81 | S=c1[nH]cnc2sccc12 | > 4 mM (inactive)
82 | N#Cc1cnn(-c2ccc(Cl)cc2)c1N | > 4 mM (inactive)
83 | CNC(=O)C(=O)Nc1ccc(C)c(C)c1 | > 4 mM (inactive)
84 | NC(=O)C1CCN(C(=O)c2ccco2)CC1 | > 4 mM (inactive)
85 | CC1=C/C(=C\c2c(O)[nH]c(=O)[nH]c2=O)C(C)=N1 | > 4 mM (inactive)
86 | CCOC(=O)c1cc(C)[nH]n1 | > 4 mM (inactive)
87 | O=c1ccc2c([nH]1)CCCC2 | > 4 mM (inactive)
88 | O=c1oc(-c2ccccc2)nc2c1cnn2-c1ccccc1 | > 4 mM (inactive)
89 | COc1cc([C@@H]2c3cc4c(cc3[C@H](OC(C)=O)[C@H]3COC(=O)[C@H]23)OCO4)cc(OC)c1OC | > 4 mM (inactive)
90 | CN1C(=O)C2C=CC1C1C(=O)N(c3ccccc3)C(=O)C21 (stereo unspecified) | > 4 mM (inactive)
91 | CC1(C)CC(=O)c2sc(N)nc2C1 | > 4 mM (inactive)
92 | OCc1sccc1-n1cccc1 | > 4 mM (inactive)
93 | Cc1nc2ccccc2c(=O)n1CCCn1ccnc1 | > 4 mM (inactive)
94 | CN1CCN(c2ccc(C(=O)O)cc2)CC1 | > 4 mM (inactive)
95 | COC(=O)C[C@@H]1C2(C)C(=O)[C@@H](CC3=C4C=C(OC)O[C@@H](c5ccoc5)[C@]4(C)CCC32)[C@H](O)C1(C)C (stereo partly specified) | > 4 mM (inactive)
96 | Cc1nnc(Nc2cccnc2)[nH]c1=O | > 4 mM (inactive)

Row | SMILES | Kd
97 | CSc1ccccc1NC(=O)c1c(C)noc1C | > 4 mM (inactive)
98 | O=C(Nc1nncs1)c1c(F)cccc1F | > 4 mM (inactive)
99 | CN1C(=O)CC[C@H]1c1cccnc1 | > 4 mM (inactive)
100 | CCCc1cc2c(c(NC(C)=O)n1)c(=O)oc1ccccc12 | > 4 mM (inactive)
101 | CC(C)(C)P(=O)(O)c1ccccc1 | > 4 mM (inactive)
102 | O=C(O)/C=C/c1ccc(O)c(O)c1 | > 4 mM (inactive)
103 | CCCn1cnn2c(=O)cc(C)nc12 | > 4 mM (inactive)
104 | N#Cc1nc(-c2cccs2)oc1N1CCOCC1 | > 4 mM (inactive)
105 | O=C1Nc2ccccc2C12OCCO2 | > 4 mM (inactive)
106 | CCCCC(Nc1n[nH]c(=O)[nH]c1=O)C(=O)O (stereo unspecified) | > 4 mM (inactive)
107 | CCn1c2ccccc2c2nn(C)c(=N)nc21 | > 4 mM (inactive)
108 | Cc1ccc(-c2nn(C)c(=O)c3ccccc23)cc1CO | > 4 mM (inactive)
109 | CN1C(=O)CC(=O)N(C)c2ccccc21 | > 4 mM (inactive)
110 | CC(=O)c1csc(-c2cc(C)on2)n1 | > 4 mM (inactive)
111 | Cc1ccccc1NC(=O)N1CCOCC1 | > 4 mM (inactive)
112 | O=C(O)Cn1cc(C(F)(F)F)ccc1=O | > 4 mM (inactive)
113 | O=c1[nH]cc(NCc2ccccc2)c(=O)[nH]1 | > 4 mM (inactive)
114 | O=C(O)c1ccc(-c2ccccn2)s1 | > 4 mM (inactive)
115 | Cn1nc(C(=O)NCc2cccnc2)c2ccccc2c1=O | > 4 mM (inactive)
116 | CC1=C(/C=C/C(C)=C/C=C/C(C)=C/C=C/C=C(C)/C=C/C=C(C)/C=C/C2=C(C)CCCC2(C)C)C(C)(C)CCC1 | > 4 mM (inactive)
